Consider one molecule from US9133230B2, “Hydrazone derivatives having potent antitumor activity toward multi-drug resistant tumor cells” (THE UNITED STATES OF AMERICA AS REPRESENTED BY THE …, priority 2011, dated 2015).

Common to all, as to format: cell-based
One assay relates to CNS cancer cell lines. Description: NCI 60 human tumor cell line screen, CNS. The settings on record: Homo sapiens, arithmetic mean of two to nine cancer cell lines, read-out: Inhibitory concentration GI50, CNS. From the text:
(§1) Selected compounds were submitted for testing in the organ-specific panel of human tumor cell lines at the National Cancer Institute, Bethesda, Md. This screen utilized 60 human tumor cell lines, representing leukemia, melanoma, and cancers of the lung, colon, brain, ovary, kidney, prostate, and breast (Boyd, M. R., “Status of the NCl preclinical antitumor drug discovery screen”. In Principles and practice of oncology updates; De Vita, V. T., Jr. Hellman, S., Rosenberg, S. A., Eds.; Lippincott: Philadelphia, Pa., 1989; Vol. 3, pp 1-12).
(§2) The MG MID value is the average of the GI50 values for all the cell lines tested for drug concentrations in the range of 10^−4-10^−8 M (See website domain: dtp.nci.nih.gov/dtp).

The test system of a further assay is HL60. Nature of the assay: MTS cytotoxicity on MDR tumor cells, HL60. The settings on record: Homo sapiens, HL-60, Vincristine (VCR) sensitive, 72 hr incubation.
The subject of assay [1] is human breast carcinoma MCF-7. Description: MTS cytotoxicity assay, MCF-7. The settings on record: Homo sapiens, MCF7, 48 h incubation. The procedure:
(§3) In order to obtain information about the growth-inhibiting action of hydrazones reported in the present invention on tumor cells, growth inhibition was assessed for the following human tumor cell lines: human myelogenous leukemia K562, human cervical adenocarcinoma HeLa, human colon adenocarcinoma Caco-2, human colon carcinoma HT-29, human colon carcinoma HCT-15, and human breast carcinoma MCF-7.
(§4) The K562, HeLa, HT-29, HCT-15, Caco-2, and MCF-7 cell lines were obtained from the American type Culture Collection (ATCC, Manassas, Va.). K562 cells were maintained in RPMI 1640 medium (Gibco/Life Technologies, Gaithersburg, Md.) containing 10% heat-inactivated fetal bovine serum (FBS) (Atlanta Biologicals, Atlanta, Ga.) and 10000 U/L penicillin and 50 mg/L streptomycin. HeLa, HT-29, HCT-15, Caco-2 and MCF-7 cells were maintained in MEM with Earl's balanced salts, 10% FBS, penicillin, and streptomycin as above. Logarithmically growing HT-29, Caco-2, and MCF-7 cells were incubated with 0.05% trypsin containing 1 mM EDTA at 37° C. for about 5 min until cells were nonadherent and formed a single cell suspension. Trypsin activity was neutralized by adding 20-fold excess of the serum-containing medium. Cells were cultured at 37° C. in an atmosphere of air and 5% CO2.
(§5) Cytotoxicity assays were conducted by tetrazolium reduction of 3-(4,5-dimethylthiazol-2-yl)-5-(3-carboxymethoxyphenyl)-2-(4-sulfophenyl)-2H-tetrazolium (MTS) with N-methylphenazonium methyl sulfate (PMS) (CellTiter Assay, Promega, Madison, Wis.). Logarithmically growing cells were plated in 0.1 mL aliquots in 96-well microtiter plates. Cells were plated at an initial density of about 5000 cells/mL and allowed to acclimatize for 24 h. Cell suspensions were treated with various dilutions of compounds in triplicate, mixed well, and allowed to incubate for 48 h at 37° C. in an atmosphere of air and 5% CO2. To the cell suspension was added 20 μL of tetrazolium reagent, the mixture was incubated for 2 h at 37° C. in an atmosphere of air and 5% CO2, and absorbance at 490 nm was read by microplate reader. Control plates with serial dilutions of cell types were counted as a control for the assay. In all cases, controls indicated a linear response versus cell number, R^2≧0.99.

In assay [2] the test system is nonsmall cell lung cancer cell lines. Description: NCI 60 human tumor cell line screen, NSCL. As to conditions: Homo sapiens, arithmetic mean of two to nine cancer cell lines, read-out: Inhibitory concentration GI50, NSCL.
Excerpt: as §1, §2

The next assay has as its system leukemia cell lines. Nature of the assay: NCI 60 human tumor cell line screen, leukemia. The settings on record: Homo sapiens, arithmetic mean of two to nine cancer cell lines, read-out: Inhibitory concentration GI50, leukemia.
Excerpt: as §1, §2

Assay [3] deals with human colon carcinoma HCT-15. Nature of the assay: MTS cytotoxicity assay, HCT-15. The settings on record: Homo sapiens, HCT-15, 48 h incubation. On the procedure: as §3, §4, §5
In assay [4] the test system is prostate cancer cell lines. Description: NCI 60 human tumor cell line screen, prostate. The settings on record: Homo sapiens, arithmetic mean of two to nine cancer cell lines, read-out: Inhibitory concentration GI50, prostrate.
Excerpt: as §1, §2

Assay [5] has as its system human colorectal carcinoma HT29. Nature of the assay: Western blot of signal transduction pathways in HT29 cells. As to conditions: HT29, IC50 dose. The procedure: The newly synthesized hydrazones RPC038, RPC042, and RPC046 had shown anti-tumor activity against 60 human cancer cell lines panel of the National Cancer Institute and on multi-drug resistant cell lines. The present studies were conducted to evaluate their action on signal transduction pathways in human colorectal carcinoma HT29. All the three compounds were examined at their IC50 doses.
Human colorectal carcinoma HT29 cells were obtained from the National Cancer Institute, Bethesda, Md., USA, and maintained in 5% CO2 at 37° C. in minimum essential media (Life Technologies, Inc., Grand Island, N.Y., USA) supplemented with 1% penicillin, streptomycin (Invitrogen, Carlsbad, Calif., USA), and 10% fetal bovine serum for optimal growth. HT29 cells (1×10^6) were plated in […], and 24 h later, fresh media was added and treated with the RPC038, RPC042 and RPC046 for indicated time points (2, 4, 8, 16 and 24 h). The cells were then washed with cold phosphate buffered saline (PBS) and taken in 1 ml PBS on ice and centrifuged at 4° C. The pellet was resuspended in appropriate volumes of radio immunoprecipitation assay buffer with protease inhibitor, kept on ice for 45 min and subsequently centrifuged at 4° C. An aliquot of supernatant (protein extract) was used to estimate the protein concentration. An aliquot of protein extract (40 μg) was subjected to Western blot analysis on a 12% polyacrylamide gel and transferred to nitrocellulose membrane. Blots were blocked, incubated with primary anti-pMEK, pERK, pJNK, pcjun, ERK, JNK, Cjun, Caspase-8, Caspase-6, PARP cleavage, or GAPDH antibodies (Cell Signaling Technology, Danvers, Mass.) and then conjugated with a secondary anti-mouse or an anti-rabbit horseradish […] antibody, and detected by ChemiDoc™ XRS+ System with Image Lab™ Software.

The subject of the next assay is colon cancer cell lines. Nature of the assay: NCI 60 human tumor cell line screen, colon. As to conditions: Homo sapiens, arithmetic mean of two to nine cancer cell lines, read-out: Inhibitory concentration GI50, colon.
Excerpt: as §1, §2

In assay [6] the test system is 60 human tumor cell lines. Nature of the assay: NCI 60 human tumor cell line screen, all cell lines.
Excerpt: as §1, §2

Assay [7] deals with human myelogenous leukemia K562. Description: MTS cytotoxicity assay, K562. As to conditions: Homo sapiens, K562, 48 h incubation. The procedure: as §3, §4, §5
Assay [8] concerns human colon carcinoma HT-29. Nature of the assay: MTS cytotoxicity assay, HT-29. As to conditions: Homo sapiens, HT-29, 48 h incubation. On the procedure:
as §3, §4, §5

As for `C(=NNc1ncnc2[nH]cnc12)c1ccccn1` [I-18, 6-(2-(Pyridin-2-ylmethylene)hydrazinyl)-9H-purine], the GI50 in the assay on CNS cancer cell lines stood at 633 nM; in the assay on HL60, 1200 nM; in [1], 3200 nM; in assay [2], 1230 nM; in the assay on leukemia cell lines, 966 nM; in assay [3], 2000 nM. Moreover, the GI50 in assay [4] amounted to 598 nM; in the assay with colon cancer cell lines, 1370 nM; in [7], 2300 nM; in assay [8] it was 3500 nM. Besides, in assay [5] (Western blot pERK), the “phosphorylation of ERK (time)” value was found to be 4 h. In addition, the “phosphorylation of JNK” value in assay [5] (Western blot pJNK (results not shown)) is listed as “without phosphorylation of JNK”. Moreover, in assay [5] (Western blot pMEK), the “MEK activation (time)” value was 2 h. Also, in assay [5] (Western blot pcjun), the “activation of cjun (time)” value amounted to 6 h. Also, in assay [5] (initial studies), the Caspase activation result was “Caspase-3 activation through Caspase-6 and not through Caspase-8”. Moreover, the mean GI50 (MG-MID) in assay [6] (Homo sapiens, average of the GI50 values for all the cell lines tested, drug concentrations 10^−4-10^−8 M, read-out: MG-MID (mean graph midpoint)) is 977 nM. Moreover, the “cells found to be the most sensitive” value in [6] (NCI screen, by cancer type) was “prostate, ovarian, CNS, and melanoma cancer cell lines”.
